Laboratory results published in the NIST ThermoML archive (doi:10.1021/acs.jced.6b00361).
Numbers after ± are expanded uncertainties.

Assays:
[1] = Molar enthalpy of transition or fusion; conditions: Crystal; DSC
[2] = Crystal; DTA

Molar enthalpy of transition or fusion [1]: 8.2 ± 0.239 kcal/mol
Normal melting temperature [2]: 221.2 ± 0.5 °C
Structure (SMILES): O=C(O)C=Cc1ccc(O)cc1 [3-(4-hydroxyphenyl)-2-propenoic acid]
